Laboratory results: PMC11940147, “Copper Hexacyanoferrates Obtained via Flavocytochrome b2 Assistance: Characterization and Application” (Biosensors, 2025)

Legend:
[1] = tested on: T1, L-arginine oxidase (ArgO); experiment: colorimetric H2O2 detection with gCuHCF and o-dianisidine, Lineweaver-Burke; type: biochemical, Amanita phalloides; conditions: enzyme in solution; coupled to gCuHCF peroxidase mimic
T1 construct: native, purified from the mushroom by the authors' method
Excerpt: colorimetric H2O2 detection with gCuHCF and o-dianisidine, Lineweaver-Burke on L-arginine oxidase (ArgO) | kinetic constants of ArgO in the ArgO/gCuHCF/o-DZ method with respect to Arg

[2] = biological target: T2, flavocytochrome b2 (Fcb2) (Ogataea polymorpha, UniProt A0A9P8PNE1); experiment: cyclic voltammetry and chronoamperometry, Fcb2 in gCuHCF on graphite electrode; type: biochemical
T2 construct: gene OGATHE_001663
T2 sequence (A0A9P8PNE1 55-553): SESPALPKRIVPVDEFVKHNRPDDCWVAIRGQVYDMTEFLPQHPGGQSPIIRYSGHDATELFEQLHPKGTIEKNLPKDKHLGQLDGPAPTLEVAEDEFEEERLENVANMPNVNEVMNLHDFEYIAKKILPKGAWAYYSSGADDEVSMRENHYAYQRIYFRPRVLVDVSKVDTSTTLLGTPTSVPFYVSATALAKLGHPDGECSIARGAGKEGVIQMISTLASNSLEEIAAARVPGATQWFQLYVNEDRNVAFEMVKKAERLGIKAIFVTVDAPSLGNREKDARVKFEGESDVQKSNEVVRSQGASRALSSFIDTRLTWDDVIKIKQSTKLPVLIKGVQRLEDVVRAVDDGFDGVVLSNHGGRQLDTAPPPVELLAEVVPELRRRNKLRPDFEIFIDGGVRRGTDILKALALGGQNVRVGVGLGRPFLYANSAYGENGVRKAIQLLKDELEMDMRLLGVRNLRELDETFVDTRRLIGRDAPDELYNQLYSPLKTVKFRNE

Structure (SMILES)	Km [1]	cyclic voltammetry and chronoamperometry, Fcb2 in gCuHCF on graphite electrode [2]
N=C(N)NCCC[C@H](N)C(=O)O [L-arginine]	300 µM	
C[C@H](O)C(=O)O [L-lactate]		current output on lactate addition correlates with Fcb2 activity in the sensing layer
